Experimental data as given in ChEMBL document CHEMBL5346863, “Discovery of substituted benzyloxy-benzylamine inhibitors of acetyltransferase Eis and their anti-mycobacterial activity” (Eur J Med Chem, 2022).
Converted amounts (≈) assume the structure as drawn.

Test system: Mycobacterium tuberculosis variant bovis
Assay: Antibacterial activity against Mycobacterium bovis BCG ATCC 35734 assessed as bacterial growth inhibition incubated for 2 to 3 weeks by resazurin dye based assay
Type: functional
Conditions: time 2-3 weeks

| SMILES | MIC [µM] |
| --- | --- |
| Fc1ccc(COc2ccc(CNCc3ccncc3)cc2)cc1 | 62.5 (≈ 20.1 µg/mL) |
| Brc1ccccc1COc1ccc(CNCc2ccccc2)cc1 | 7.8 (≈ 2.98 µg/mL) |
| Fc1ccc(COc2cccc(CNCc3ccncc3)c2)cc1 | > 62.5 |
| Brc1ccc(COc2ccccc2CNCc2ccccc2)cc1 | 62.5 (≈ 23.9 µg/mL) |
| Clc1ccc(COc2ccc(CNCc3ccccc3)cc2)cc1 | 7.8 (≈ 2.64 µg/mL) |
| NNC(=O)c1ccncc1 [ISONIAZID] | ≤ 0.25 |
| c1ccc(CNCc2ccc(OCc3ccc(-c4ccccc4)cc3)cc2)cc1 | 3.9 (≈ 1.48 µg/mL) |
| Brc1cccc(COc2ccc(CNCc3ccccc3)cc2)c1 | 7.8 (≈ 2.98 µg/mL) |
| c1ccc(COc2ccc(CNCc3ccncc3)cc2)cc1 | > 62.5 |
| Fc1ccc(COc2ccc(CNCc3ccccc3)cc2)cc1 | > 62.5 |
| COc1ccc(COc2ccc(CNCc3ccccc3)cc2)cc1 | 7.8 (≈ 2.6 µg/mL) |
| Clc1ccc(COc2ccc(CNCc3cccnc3)cc2)cc1 | 62.5 (≈ 21.2 µg/mL) |
| CC(C)(C)c1ccc(COc2ccc(CNCc3ccccc3)cc2)cc1 | 2 (≈ 0.719 µg/mL) |
| Cc1ccc(COc2ccc(CNCc3ccccc3)cc2)cc1 | 3.9 (≈ 1.24 µg/mL) |
| Clc1ccc(COc2ccccc2CNCc2ccncc2)cc1 | 62.5 (≈ 21.2 µg/mL) |
| Fc1ccc(COc2ccccc2CNCc2cccnc2)cc1 | > 62.5 |
| CC(C)c1ccc(COc2ccc(CNCc3ccccc3)cc2)cc1 | 1 (≈ 0.345 µg/mL) |
| c1ccc(COc2ccc(CNCc3cccnc3)cc2)cc1 | > 62.5 |
| Clc1cccc(COc2ccccc2CNCc2ccncc2)c1 | > 62.5 |

| SMILES | MIC [µM] |
| --- | --- |
| Clc1ccc(COc2ccc(CNCc3ccncc3)cc2)cc1 | 31.3 (≈ 10.6 µg/mL) |
| Brc1ccc(COc2ccccc2CNCc2cccnc2)cc1 | 62.5 (≈ 24 µg/mL) |
| c1ccc(COc2ccccc2CNCc2cccnc2)cc1 | > 62.5 |
| Brc1ccc(COc2ccccc2CNCc2ccncc2)cc1 | 62.5 (≈ 24 µg/mL) |
| Fc1ccc(COc2cccc(CNCc3ccccc3)c2)cc1 | 7.8 (≈ 2.51 µg/mL) |
| Clc1ccc(COc2cccc(CNCc3ccncc3)c2)cc1 | 62.5 (≈ 21.2 µg/mL) |
| Clc1ccc(COc2cccc(CNCc3cccnc3)c2)cc1 | 62.5 (≈ 21.2 µg/mL) |
| c1ccc(COc2ccccc2CNCc2ccncc2)cc1 | > 62.5 |
| Fc1ccc(COc2cccc(CNCc3cccnc3)c2)cc1 | > 62.5 |
| c1ccc(CNCc2ccccc2OCc2ccccc2)cc1 | 62.5 (≈ 19 µg/mL) |
| Clc1cccc(COc2ccccc2CNCc2cccnc2)c1 | 62.5 (≈ 21.2 µg/mL) |
| Fc1ccc(COc2ccc(CNCc3cccnc3)cc2)cc1 | 62.5 (≈ 20.1 µg/mL) |
| Fc1ccc(COc2ccccc2CNCc2ccccc2)cc1 | > 62.5 |
| c1ccc(CNCc2ccc(OCc3ccccc3)cc2)cc1 | 31.3 (≈ 9.5 µg/mL) |
| Brc1ccc(COc2ccc(CNCc3ccccc3)cc2)cc1 | 3.9 (≈ 1.49 µg/mL) |
| Clc1ccc(COc2cccc(CNCc3ccccc3)c2)cc1 | 7.8 (≈ 2.64 µg/mL) |
| Clc1ccc(COc2ccccc2CNCc2ccccc2)cc1 | 62.5 (≈ 21.1 µg/mL) |
| Clc1cccc(COc2ccccc2CNCc2ccccc2)c1 | 15.6 (≈ 5.27 µg/mL) |
